Columns and labels:
barnyardgrass [1] = test: Test A preemergence; format: in vivo, Echinochloa crus-galli; details: preemergence; for Barnyardgrass plant response rating (0 to 100 scale, 0 is no effect, 100 is complete control): visual injury approx. 10 days after treatment
Summary of the method: (§1)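 Growth medium: loam soil blended with sand. Preemergence treatment used a directed soil spray right after planting; postemergence treatment targeted seedlings at one to two leaves (2–10 cm height). Response was judged by eye relative to untreated plants about 10 days later on a 0–100 control scale.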

foxtail, giant [2] = test: Test A preemergence; format: in vivo, Setaria faberii; details: preemergence; for Foxtail, Giant plant response rating (0 to 100 scale): visual injury approx. 10 days after treatment
Summary of the method: as §1

velvetleaf [3] = test: Test A preemergence; format: in vivo, Abutilon theophrasti; details: preemergence; for Velvetleaf plant response rating (0 to 100 scale): visual injury approx. 10 days after treatment
Summary of the method: as §1

wheat = test: Test A preemergence; format: in vivo, Triticum aestivum; details: preemergence; for Wheat plant response rating (0 to 100 scale): visual injury approx. 10 days after treatment
Summary of the method: as §1

corn = test: Test A preemergence; format: in vivo, Zea mays; details: preemergence; for Corn plant response rating (0 to 100 scale): visual injury approx. 10 days after treatment
Summary of the method: as §1

barnyardgrass [4] = test: Test A postemergence; format: in vivo, Echinochloa crus-galli
Summary of the method: as §1

foxtail, giant [5] = test: Test A postemergence; format: in vivo, Setaria faberii
Summary of the method: as §1

velvetleaf [6] = test: Test A postemergence; format: in vivo, Abutilon theophrasti
Summary of the method: as §1

sedge, umbrella = test: Test B flood; format: in vivo, Cyperus difformis; details: 250 g ai/ha, visual rating on 0 to 100 scale (0 no effect, 100 complete control), 13 to 15 days
Summary of the method: (§2)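 Two-leaf-stage plants, pots flooded (3 cm above soil) and treated through the water, which stayed at that depth. After 13–15 days in greenhouse conditions, visual assessment versus controls: 0 is no effect, 100 complete control, dash means no result.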

barnyardgrass [7] = test: Test B flood; format: in vivo, Echinochloa crus-galli; details: 250 g ai/ha, visual rating on 0 to 100 scale (0 no effect, 100 complete control), 13 to 15 days
Summary of the method: as §2

crabgrass, large = test: Test C preemergence; format: in vivo, Digitaria sanguinalis; details: preemergence; for Plant response rating, Crabgrass, Large: 125 g ai/ha, scale 0 to 100, 0 = no effect, 100 = complete control
Summary of the method: (§3)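 Visual control ratings on a 0–100 scale (100 = complete control) made against untreated controls after 13 to 15 days in greenhouse. Compounds applied in surfactant-containing solvent mixture, either preemergence to loam/sand-sown seeds or postemergence to 1- to 4-leaf plants (2–18 cm) in peat medium.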

morningglory = test: Test C preemergence; format: in vivo, Ipomoea coccinea; details: preemergence; for Plant response rating, Morningglory: 125 g ai/ha, scale 0 to 100, 0 = no effect, 100 = complete control
Summary of the method: as §3

nutsedge, yellow = test: Test C preemergence; format: in vivo, Cyperus esculentus; details: preemergence; for Plant response rating, Nutsedge, Yellow: 125 g ai/ha, scale 0 to 100, 0 = no effect, 100 = complete control
Summary of the method: as §3

pigweed = test: Test C preemergence; format: in vivo, Amaranthus retroflexus; details: preemergence; for Plant response rating, Pigweed: 125 g ai/ha, scale 0 to 100, 0 = no effect, 100 = complete control
Summary of the method: as §3

[8] = 125 g ai/ha, visual injury, 0 to 100 scale, approx. 10 days
[9] = 500 g ai/ha, visual injury after approx. 10 days, 0 to 100 scale (0 no effect, 100 complete control)
[10] = Postemergence, 500 g ai/ha, 0 to 100 scale (0 no effect, 100 complete control)
[11] = postemergence, 125 g ai/ha, about 10 days, visual rating on 0 to 100 scale (0 no effect, 100 complete control)
[12] = 31 g ai/ha, visual rating, scale 0 to 100 (0 no effect, 100 complete control), 13 to 15 days
[13] = 62 g ai/ha, scale 0 to 100 (0 no effect, 100 complete control), 13 to 15 days
[14] = 250 g ai/ha, scale 0 to 100, 0 is no effect, 100 is complete control

SMILES | Barnyardgrass plant response rating (barnyardgrass [1]; [9]) | Foxtail, Giant plant response rating (foxtail, giant [2]; [9]) | Velvetleaf plant response rating (velvetleaf [3]; [9]) | Wheat plant response rating (wheat; [9]) | Corn plant response rating (corn; [9]) | Barnyardgrass plant response rating (barnyardgrass [4]; [10]) | Barnyardgrass plant response rating (barnyardgrass [4]; [11]) | Foxtail, Giant plant response rating (foxtail, giant [5]; [10]) | Foxtail, Giant plant response rating (foxtail, giant [5]; [11]) | Velvetleaf plant response rating (velvetleaf [6]; [10]) | Plant response rating, Sedge, Umbrella (sedge, umbrella) | Plant response rating, Barnyardgrass (barnyardgrass [7]) | Crabgrass, Large plant response rating (crabgrass, large; [12]) | Plant response rating, Crabgrass, Large (crabgrass, large; 13 to 15 days) | Crabgrass, Large plant response rating (crabgrass, large; [14]) | Morningglory plant response rating (morningglory; [12]) | Morningglory plant response rating (morningglory; [13]) | Plant response rating, Morningglory (morningglory; 13 to 15 days) | Morningglory plant response rating (morningglory; [14]) | Nutsedge, Yellow plant response rating (nutsedge, yellow; [12]) | further results
O=C(NCC(F)(F)F)c1cc(CCCl)n(Cc2ccnc(C(F)(F)F)c2)n1 [Compound 143] | 100 | 100 | 100 | 100 | 80 | 90 | 60 | 90 | 90 | 90 | 95 | 45 | 100 | 100 | 100 | 100 | 100 | 100 | 100 | 30 | Barnyardgrass plant response rating (barnyardgrass [1]; [8]): 90; Foxtail, Giant plant response rating (foxtail, giant [2]; [8]): 100; Velvetleaf plant response rating (velvetleaf [3]; [8]): 50; Wheat plant response rating (wheat; [8]): 70; Corn plant response rating (corn; [8]): 50; Velvetleaf plant response rating (velvetleaf [6]; [11]): 80; Crabgrass, Large plant response rating (crabgrass, large; [13]): 100; Nutsedge, Yellow plant response rating (nutsedge, yellow; [13]): 40; Plant response rating, Nutsedge, Yellow (nutsedge, yellow; 13 to 15 days): 80; Nutsedge, Yellow plant response rating (nutsedge, yellow; [14]): 90; Pigweed plant response rating (pigweed; [12]): 100; Pigweed plant response rating (pigweed; [13]): 100; Plant response rating, Pigweed (pigweed; 13 to 15 days): 100; Pigweed plant response rating (pigweed; [14]): 100
CCCNC(=O)c1cc(CCCl)n(Cc2ccnc(C(F)(F)F)c2)n1 [Compound 145] | 100 | 100 | 80 | 100 | 60 | 90 | 60 | 90 | 90 | 100 | 95 | 45 | 100 | 100 | 100 | 80 | 100 | 100 | 100 | 10 | Barnyardgrass plant response rating (barnyardgrass [1]; [8]): 90; Foxtail, Giant plant response rating (0 to 100 scale) (foxtail, giant [2]; 125 g ai/ha): 100; Velvetleaf plant response rating (0 to 100 scale) (velvetleaf [3]; 125 g ai/ha): 50; Wheat plant response rating (0 to 100 scale) (wheat; 125 g ai/ha): 40; Corn plant response rating (0 to 100 scale) (corn; 125 g ai/ha): 30; Velvetleaf plant response rating (velvetleaf [6]; [11]): 70; Nutsedge, Yellow plant response rating (nutsedge, yellow; [13]): 75; Plant response rating, Nutsedge, Yellow (nutsedge, yellow; 13 to 15 days): 60; Nutsedge, Yellow plant response rating (nutsedge, yellow; [14]): 90; Pigweed plant response rating (pigweed; [12]): 100; Pigweed plant response rating (pigweed; [13]): 100; Plant response rating, Pigweed (pigweed; 13 to 15 days): 100; Pigweed plant response rating (pigweed; [14]): 100
CCNC(=O)c1cc(CCCl)n(Cc2ccnc(C(F)(F)F)c2)n1 [Compound 179] | 100 | 100 | 100 | 100 | 50 | 90 | 70 | 90 | 90 | 100 | 80 | 25 | 100 | 100 | 100 | 85 | 95 | 100 | 100 | 10 | Barnyardgrass plant response rating (0 to 100 scale, 0 is no effect, 100 is complete control) (barnyardgrass [1]; 125 g ai/ha): 100; Foxtail, Giant plant response rating (0 to 100 scale) (foxtail, giant [2]; 125 g ai/ha): 100; Velvetleaf plant response rating (0 to 100 scale) (velvetleaf [3]; 125 g ai/ha): 50; Wheat plant response rating (0 to 100 scale) (wheat; 125 g ai/ha): 10; Corn plant response rating (0 to 100 scale) (corn; 125 g ai/ha): 10; Velvetleaf plant response rating (velvetleaf [6]; [11]): 70; Crabgrass, Large plant response rating (crabgrass, large; [13]): 100; Nutsedge, Yellow plant response rating (nutsedge, yellow; [13]): 15; Plant response rating, Nutsedge, Yellow (nutsedge, yellow; 13 to 15 days): 75; Nutsedge, Yellow plant response rating (nutsedge, yellow; [14]): 85; Pigweed plant response rating (pigweed; [12]): 100; Pigweed plant response rating (pigweed; [13]): 100; Plant response rating, Pigweed (pigweed; 13 to 15 days): 100; Pigweed plant response rating (pigweed; [14]): 98
CCCc1cc(C(=O)NOCC)nn1Cc1ccnc(C(F)(F)F)c1 [Compound 185] | 100 | 100 | 100 | 90 | 30 | 90 | 80 | 90 | 80 | 100 | 80 | 20 | 80 | 100 | 100 | 15 | 75 | 85 | 98 | 5 | Barnyardgrass plant response rating (0 to 100 scale, 0 is no effect, 100 is complete control) (barnyardgrass [1]; 125 g ai/ha): 80; Foxtail, Giant plant response rating (0 to 100 scale) (foxtail, giant [2]; 125 g ai/ha): 100; Velvetleaf plant response rating (0 to 100 scale) (velvetleaf [3]; 125 g ai/ha): 70; Wheat plant response rating (0 to 100 scale) (wheat; 125 g ai/ha): 70; Corn plant response rating (0 to 100 scale) (corn; 125 g ai/ha): 10; Velvetleaf plant response rating (velvetleaf [6]; Postemergence, 125 g ai/ha, 0 to 100 scale, 0 no effect, 100 complete control): 10; Crabgrass, Large plant response rating (crabgrass, large; [13]): 100; Nutsedge, Yellow plant response rating (nutsedge, yellow; [13]): 40; Plant response rating, Nutsedge, Yellow (nutsedge, yellow; 13 to 15 days): 75; Nutsedge, Yellow plant response rating (nutsedge, yellow; [14]): 75; Pigweed plant response rating (pigweed; [12]): 100; Pigweed plant response rating (pigweed; [13]): 100; Plant response rating, Pigweed (pigweed; 13 to 15 days): 100; Pigweed plant response rating (pigweed; [14]): 100
